According to patent US20030158255A1, “Use of bismuth subgallate in prevention and/or reduction of skin deterioration” (priority 2002, published 2003):

System: keratinocyte cells
Experiment: Proliferation of keratinocyte (cell count)
Assay type: cell-based
Conditions: for effect on proliferation of keratinocyte: cell count after 2-12 days of cultivation, FIG. 1
Protocol: The keratinocyte cells were respectively cultivated with the following groups of agents: (a) 0.7 μg/1 ml, 7 μg/ml, 70 μg/ml and 700 μg/ml of bismuth subgallate; (b) 0.1 μg/ml, 1 μg/ml, 10 μg/ml and […]; and (c) 0.7 μg/ml bismuth subgallate in combination with 0.1 μg/ml borneol, 7 μg/ml bismuth subgallate in combination with 1 μg/ml borneol, 70 μg/ml bismuth subgallate in combination with 10 μg/ml borneol and 700 μg/ml bismuth subgallate in combination with 100 μg/ml borneol. After the cells were cultivated after 2, 4, 6, 8, 10 and 12 days respectively, their count was noted to evaluate the proliferation of them.

Row | Compound | effect on proliferation of keratinocyte | keratinocyte cell number relative to control (70 μg/ml bismuth subgallate, twelfth day)
1 | CC1(C)C2CCC1(C)C(O)C2 (stereo not drawn) [borneol] | no significant effect | –
2 | bismuth subgallate | significant increase in the proliferation of keratinocyte | up to two times of that of control
